Measurements from publication PMC8579695, “The Stringent Response Inhibits 70S Ribosome Formation in Staphylococcus aureus by Impeding GTPase-Ribosome Interactions” (mBio, 2021).

Target: HflX (Staphylococcus aureus, UniProt Q2FYY9)
Experiment: GTPase activity assay of wild-type and Atto488-labeled HflX
Assay type: biochemical
Settings: 100 μM ppGpp, 1 μM GTP, 0.1 μM RA-GTPase, 0.1 μM 70S ribosomes, 37°C, 60 min
Excerpt: To gain further insight into the binding mechanism and how (p)ppGpp reduces the association of RA-GTPases to the ribosomal subunits, we used a stopped-flow technique with fluorescent derivatives of the RA-GTPases (Fig. 3A). Structural predictions of all four RA-GTPases were built by homology modeling using available structures to assess the availability of suitable residues for fluorescence labeling (see Fig. S3A and B) ([43]). Both RbgA and HflX were amenable to covalent linkage to the fluorophore Atto-488 using maleimide chemistry with exposed cysteine residues. […]
Supplementary file : FIG S3 Labeling sites and GTPase activity of Atto488-labelled proteins. […] Enzymatic activity was monitored by TLC and quantified by using ImageQuant. […]
GTPase activity assays were performed as previously described ([10]). Briefly, the ability of proteins to hydrolyze GTP was determined by incubating 100 nM recombinant protein with 100 nM S. aureus 70S ribosomes, 1 μM GTP and 2.78 nM [α-^32P]GTP in 40 mM Tris (pH 7.5), 100 mM NaCl (100 mM KCl for RbgA), and 10 mM MgCl2 at 37°C for the indicated times. […] The radioactive spots were exposed to a BAS-MS imaging plate (Fujifilm) and visualized using an LA 7000 Typhoon PhosphorImager (GE Healthcare), and images were quantified using ImageQuant (GE Healthcare).

HflX, sequence (Q2FYY9 entry or part of it): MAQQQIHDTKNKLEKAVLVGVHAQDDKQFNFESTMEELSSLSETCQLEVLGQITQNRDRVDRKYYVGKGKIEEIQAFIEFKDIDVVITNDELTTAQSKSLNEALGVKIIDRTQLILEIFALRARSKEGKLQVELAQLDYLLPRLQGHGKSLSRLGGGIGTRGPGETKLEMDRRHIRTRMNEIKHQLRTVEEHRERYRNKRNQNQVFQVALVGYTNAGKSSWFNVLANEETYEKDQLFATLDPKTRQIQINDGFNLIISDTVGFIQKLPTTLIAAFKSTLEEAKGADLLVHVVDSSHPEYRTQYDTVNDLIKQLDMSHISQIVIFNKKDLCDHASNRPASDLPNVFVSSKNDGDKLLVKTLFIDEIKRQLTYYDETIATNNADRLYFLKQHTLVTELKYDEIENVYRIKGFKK

## Nc1nc2c(ncn2[C@@H]2O[C@H](COP(=O)(O)OP(=O)(O)O)[C@@H](OP(=O)(O)OP(=O)(O)O)[C@H]2O)c(=O)[nH]1 [ppGpp]
  inhibition of GTPase activity of Atto488-labeled HflX: can still be inhibited
